Legend:
Conditions in all cases: 72 h
[1] = tested on: Vero E6; assay: cell viability relative to DMSO; higher = less toxic
[2] = tested on: Calu-3; assay: as above
[3] = tested on: Caco-2; assay: as above
[4] = tested on: HepG2; assay: as above
[5] = tested on: U2OS; assay: as above
[6] = tested on: Vero E6; assay: drug sensitivity score (DSS) for viability; higher = more toxic; extreme values may be limits of the assay
[7] = tested on: Calu-3; assay: as above
[8] = tested on: Caco-2; assay: as above
[9] = tested on: HepG2; assay: as above
[10] = tested on: U2OS; assay: as above
[11] = tested on: Vero E6; assay: relative viability EC50 (midpoint between 100% and the lowest measured viability); higher = less toxic
[12] = tested on: Calu-3; assay: as above
[13] = tested on: HepG2; assay: as above
[14] = tested on: U2OS; assay: as above
[15] = tested on: Caco-2; assay: as above

`CC(=O)O[C@]1(C(C)=O)CC[C@H]2[C@@H]3CCC4=CC(=O)CCC4=C3[C@@H](c3ccc(N(C)C)cc3)C[C@@]21C` [Ulipristal acetate] showed a cell viability ([1]; 1 nM) of 104%, a cell viability ([1]; 10 nM) of 98.2% and a cell viability ([1]; 100 nM) of 99.3%. The cell viability ([1]; 1000 nM) was 97%, the cell viability ([1]; 10000 nM) was 98.3% and the cell viability ([2]; 1 nM) was 105%. The cell viability ([2]; 10 nM) was 106%, the cell viability ([2]; 100 nM) was 97.1% and the cell viability ([2]; 1000 nM) was 104%. It also gave a cell viability ([2]; 10000 nM) of 110%, a cell viability ([3]; 1 nM) of 94.7% and a cell viability ([3]; 10 nM) of 94.7%. The cell viability ([3]; 100 nM) was 98.3%, the cell viability ([3]; 1000 nM) was 97.9% and the cell viability ([3]; 10000 nM) was 67.8%. The cell viability ([4]; 1 nM) was 110%, the cell viability ([4]; 10 nM) was 110% and the cell viability ([4]; 100 nM) was 103%. The cell viability ([4]; 1000 nM) was 97.9%, the cell viability ([4]; 10000 nM) was 104% and the cell viability ([5]; 1 nM) was 103%. For the same molecule, the cell viability ([5]; 10 nM) was 103%, the cell viability ([5]; 100 nM) was 99.1% and the cell viability ([5]; 1000 nM) was 99.6%. The cell viability ([5]; 10000 nM) was 94.9%, the drug sensitivity score [6] was 0 and the drug sensitivity score [7] was 0. It also gave a drug sensitivity score [8] of 1.8, a drug sensitivity score [9] of 0 and a drug sensitivity score [10] of 0. For the same molecule, the “relative viability EC50” value [11] was greater than 10 µM, the “relative viability EC50” value [12] was greater than 10 µM and the “relative viability EC50” value [13] was greater than 10 µM. For the same molecule, the “relative viability EC50” value [14] was greater than 10 µM.
In the case of `N[C@@H](CCC(=O)N[C@@H](CS)C(=O)NCC(=O)O)C(=O)O` [glutathione], the cell viability ([2]; 1 nM) is reported as 98.1%, the cell viability ([2]; 10 nM) is reported as 93.2% and the cell viability ([2]; 100 nM) is reported as 98.8%. For the same molecule, the cell viability ([2]; 1000 nM) was 101%, the cell viability ([2]; 10000 nM) was 99.7% and the cell viability ([3]; 1 nM) was 92.7%. For the same molecule, the cell viability ([3]; 10 nM) was 90.7%, the cell viability ([3]; 100 nM) was 105% and the cell viability ([3]; 1000 nM) was 93.6%. The cell viability ([3]; 10000 nM) was 99.4%, the cell viability ([4]; 1 nM) was 108% and the cell viability ([4]; 10 nM) was 106%. It also gave a cell viability ([4]; 100 nM) of 97.3%, a cell viability ([4]; 1000 nM) of 99.3% and a cell viability ([4]; 10000 nM) of 104%. It also gave a cell viability ([5]; 1 nM) of 95.3%, a cell viability ([5]; 10 nM) of 97.3% and a cell viability ([5]; 100 nM) of 99.5%. The cell viability ([5]; 1000 nM) was 96.6%, the cell viability ([5]; 10000 nM) was 102% and the drug sensitivity score [7] was 0. It also gave a drug sensitivity score [8] of 0, a drug sensitivity score [9] of 0 and a drug sensitivity score [10] of 0. For the same molecule, the “relative viability EC50” value [12] was greater than 10 µM, the “relative viability EC50” value [15] was greater than 10 µM and the “relative viability EC50” value [13] was greater than 10 µM. For the same molecule, the “relative viability EC50” value [14] was greater than 10 µM.
`CC(C)c1cc(C(C)C)c(CC(=O)NS(=O)(=O)Oc2c(C(C)C)cccc2C(C)C)c(C(C)C)c1` [avasimibe] was tested, and the cell viability ([1]; 1 nM) was 100%, the cell viability ([1]; 10 nM) was 94.8% and the cell viability ([1]; 100 nM) was 93.2%. The cell viability ([1]; 1000 nM) was 94.4%, the cell viability ([1]; 10000 nM) was 81% and the cell viability ([2]; 1 nM) was 92.2%. For the same molecule, the cell viability ([2]; 10 nM) was 104%, the cell viability ([2]; 100 nM) was 99.1% and the cell viability ([2]; 1000 nM) was 98.8%. It also gave a cell viability ([2]; 10000 nM) of 102%, a cell viability ([3]; 1 nM) of 90.3% and a cell viability ([3]; 10 nM) of 96.3%. It also gave a cell viability ([3]; 100 nM) of 91%, a cell viability ([3]; 1000 nM) of 106% and a cell viability ([3]; 10000 nM) of 72.3%. For the same molecule, the cell viability ([4]; 1 nM) was 102%, the cell viability ([4]; 10 nM) was 108% and the cell viability ([4]; 100 nM) was 106%. The cell viability ([4]; 1000 nM) was 97.6%, the cell viability ([4]; 10000 nM) was 79.4% and the cell viability ([5]; 1 nM) was 97.6%. The cell viability ([5]; 10 nM) was 98.7%, the cell viability ([5]; 100 nM) was 95.4% and the cell viability ([5]; 1000 nM) was 99.7%. The cell viability ([5]; 10000 nM) was 92.3%, the drug sensitivity score [6] was 0.6 and the drug sensitivity score [7] was 0. The drug sensitivity score [8] was 0.8, the drug sensitivity score [9] was 1 and the drug sensitivity score [10] was 0. The “relative viability EC50” value [11] was greater than 10 µM, the “relative viability EC50” value [12] was greater than 10 µM and the “relative viability EC50” value [13] was greater than 10 µM. The “relative viability EC50” value [14] was greater than 10 µM.
`CC(C)(CO)CCCCCCC(C)(C)CO` [gemcadiol] was tested, and the cell viability ([1]; 1 nM) was 93.8%, the cell viability ([1]; 10 nM) was 102% and the cell viability ([1]; 100 nM) was 102%. For the same molecule, the cell viability ([1]; 1000 nM) was 103%, the cell viability ([1]; 10000 nM) was 108% and the cell viability ([2]; 1 nM) was 97.4%. The cell viability ([2]; 10 nM) was 93.5%, the cell viability ([2]; 100 nM) was 100% and the cell viability ([2]; 1000 nM) was 94.3%. For the same molecule, the cell viability ([2]; 10000 nM) was 105%, the cell viability ([3]; 1 nM) was 89.7% and the cell viability ([3]; 10 nM) was 129%. It also gave a cell viability ([3]; 100 nM) of 113%, a cell viability ([3]; 1000 nM) of 128% and a cell viability ([3]; 10000 nM) of 92.2%. It also gave a cell viability ([5]; 1 nM) of 97%, a cell viability ([5]; 10 nM) of 94.5% and a cell viability ([5]; 100 nM) of 103%. It also gave a cell viability ([5]; 1000 nM) of 96.8%, a cell viability ([5]; 10000 nM) of 98.7% and a drug sensitivity score [6] of 0. It also gave a drug sensitivity score [7] of 0, a drug sensitivity score [8] of 0 and a drug sensitivity score [10] of 0. The “relative viability EC50” value [11] was greater than 10 µM, the “relative viability EC50” value [12] was greater than 10 µM and the “relative viability EC50” value [15] was greater than 10 µM. The “relative viability EC50” value [14] was greater than 10 µM.
Work on `C[S+](CC[C@H](N)C(=O)O)C[C@H]1O[C@@H](n2cnc3c(N)ncnc32)[C@H](O)[C@@H]1O` (stereo partly drawn) [ademetionine] yielded a cell viability ([1]; 1 nM) of 99.8%, a cell viability ([1]; 10 nM) of 104% and a cell viability ([1]; 100 nM) of 103%. The cell viability ([1]; 1000 nM) was 108%, the cell viability ([1]; 10000 nM) was 92.2% and the cell viability ([2]; 1 nM) was 106%. It also gave a cell viability ([2]; 10 nM) of 106%, a cell viability ([2]; 100 nM) of 105% and a cell viability ([2]; 1000 nM) of 99.8%. The cell viability ([2]; 10000 nM) was 96.3%, the cell viability ([4]; 1 nM) was 94.7% and the cell viability ([4]; 10 nM) was 105%. It also gave a cell viability ([4]; 100 nM) of 89.9%, a cell viability ([4]; 1000 nM) of 91.4% and a cell viability ([4]; 10000 nM) of 91.3%. For the same molecule, the cell viability ([5]; 1 nM) was 100%, the cell viability ([5]; 10 nM) was 97.9% and the cell viability ([5]; 100 nM) was 98.5%. The cell viability ([5]; 1000 nM) was 98%, the cell viability ([5]; 10000 nM) was 106% and the drug sensitivity score [6] was 0. The drug sensitivity score [7] was 0, the drug sensitivity score [9] was 0 and the drug sensitivity score [10] was 0. The “relative viability EC50” value [11] was greater than 10 µM, the “relative viability EC50” value [12] was greater than 10 µM and the “relative viability EC50” value [13] was greater than 10 µM. For the same molecule, the “relative viability EC50” value [14] was greater than 10 µM.
`C#C[C@]1(OC(C)=O)CC[C@H]2[C@@H]3CCC4=CC(=O)CC[C@@H]4[C@H]3CC[C@@]21C` [norethindrone-acetate] showed a cell viability ([1]; 1 nM) of 104%, a cell viability ([1]; 10 nM) of 108% and a cell viability ([1]; 100 nM) of 110%. The cell viability ([1]; 1000 nM) was 90.5%, the cell viability ([1]; 10000 nM) was 98.1% and the cell viability ([2]; 1 nM) was 93.2%. It also gave a cell viability ([2]; 10 nM) of 82.9%, a cell viability ([2]; 100 nM) of 90.8% and a cell viability ([2]; 1000 nM) of 104%. The cell viability ([2]; 10000 nM) was 95.6%, the cell viability ([3]; 1 nM) was 91.8% and the cell viability ([3]; 10 nM) was 97.1%. For the same molecule, the cell viability ([3]; 100 nM) was 84.7%, the cell viability ([3]; 1000 nM) was 95% and the cell viability ([3]; 10000 nM) was 70.4%. For the same molecule, the cell viability ([5]; 1 nM) was 100%, the cell viability ([5]; 10 nM) was 99.6% and the cell viability ([5]; 100 nM) was 98.5%. It also gave a cell viability ([5]; 1000 nM) of 98.5%, a cell viability ([5]; 10000 nM) of 94.9% and a drug sensitivity score [6] of 0. For the same molecule, the drug sensitivity score [7] was 0, the drug sensitivity score [8] was 2.3 and the drug sensitivity score [10] was 0. The “relative viability EC50” value [11] was greater than 10 µM, the “relative viability EC50” value [12] was greater than 10 µM and the “relative viability EC50” value [14] was greater than 10 µM.
In the case of `CO/N=C1\C[C@]2(C[C@@H]3C[C@@H](C/C=C(\C)C[C@@H](C)/C=C/C=C4\CO[C@@H]5[C@H](O)C(C)=C[C@@H](C(=O)O3)[C@]45O)O2)O[C@H](/C(C)=C/C(C)C)[C@H]1C` [moxidectin], the cell viability ([1]; 1 nM) is reported as 96.4%, the cell viability ([1]; 10 nM) is reported as 96.9% and the cell viability ([1]; 100 nM) is reported as 88.7%. For the same molecule, the cell viability ([1]; 1000 nM) was 96.4%, the cell viability ([1]; 10000 nM) was 101% and the cell viability ([2]; 1 nM) was 90.7%. It also gave a cell viability ([2]; 10 nM) of 97.3%, a cell viability ([2]; 100 nM) of 94.2% and a cell viability ([2]; 1000 nM) of 103%. It also gave a cell viability ([2]; 10000 nM) of 89.8%, a cell viability ([3]; 1 nM) of 95.3% and a cell viability ([3]; 10 nM) of 94%. It also gave a cell viability ([3]; 100 nM) of 102%, a cell viability ([3]; 1000 nM) of 88.2% and a cell viability ([3]; 10000 nM) of 62.1%. The cell viability ([4]; 1 nM) was 101%, the cell viability ([4]; 10 nM) was 106% and the cell viability ([4]; 100 nM) was 102%. It also gave a cell viability ([4]; 1000 nM) of 105%, a cell viability ([4]; 10000 nM) of 96.7% and a cell viability ([5]; 1 nM) of 103%. For the same molecule, the cell viability ([5]; 10 nM) was 92.1%, the cell viability ([5]; 100 nM) was 93.5% and the cell viability ([5]; 1000 nM) was 94.6%. It also gave a cell viability ([5]; 10000 nM) of 94.7%, a drug sensitivity score [6] of 0 and a drug sensitivity score [7] of 0. For the same molecule, the drug sensitivity score [8] was 3.6, the drug sensitivity score [9] was 0 and the drug sensitivity score [10] was 0. The “relative viability EC50” value [11] was greater than 10 µM, the “relative viability EC50” value [12] was greater than 10 µM and the “relative viability EC50” value [13] was greater than 10 µM. For the same molecule, the “relative viability EC50” value [14] was greater than 10 µM.
